In US20150087673A1, “METHODS FOR USING AND BIOMARKERS FOR AMPK-ACTIVATING COMPOUNDS” (RIGEL PHARMACEUTICALS, INC., priority 2013, published 2015):

System: AMPK
Assay: AMPK activation assay (enzyme-linked immunosorbent assay)
Format: cell-based
Method in brief: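 Activation by each compound is measured using a conventional commercial immunoassay kit.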

SMILES | EC50
COc1ccc(-c2ccc(NC(=O)c3ccc(C(=O)N4CCN(Cc5ccc(F)cc5)CC4)cn3)cc2)cc1 [Compound 29, N-(4-(4-methoxyphenyl)phenyl)-5-(4-(4-fluorobenzyl)piperazine-1-carbonyl)picolinamide] | 500 to 1000 nM
CS(=O)(=O)c1ccc(C(=O)C2CCN(C(=O)c3ccc(C(=O)N[C@@H]4CCN(Cc5ccc(OC(F)(F)F)cc5)C[C@H]4F)nc3)CC2)cc1 (relative stereo) [Compound 253, N-((trans)-3-fluoro-1-(4-(trifluoromethoxy)benzyl)piperidin-4-yl)-5-(4-(4-(methylsulfonyl)benzoyl)piperidine-1-carbonyl)picolinamide] | 500 to 1000 nM
O=C(Nc1ccc(Oc2ccc(F)cc2)nc1)c1ccc(C(=O)N2CCC(C(=O)c3ccc(F)c(F)c3)CC2)cn1 [Compound 330, 5-(4-(3,4-difluorobenzoyl)piperidine-1-carbonyl)-N-(6-(4-fluorophenoxy)pyridin-3-yl)picolinamide] | 500 to 1000 nM
O=C(Nc1ccc(C(=O)N2CCN(Cc3ccc(F)cc3)CC2)cn1)c1ccc(-c2ccccc2)cc1 [Compound 170, N-(5-(4-(4-fluorobenzyl)piperazine-1-carbonyl)pyridin-2-yl)biphenyl-4-carboxamide] | > 10000 nM
N#Cc1ccc(CN2CCC(NC(=O)c3ccc(C(=O)N4CC(OCc5ccc(F)cc5)C4)cn3)CC2)cc1 [Compound 307, N-(1-(4-cyanobenzyl)piperidin-4-yl)-5-(3-(4-fluorobenzyloxy)azetidine-1-carbonyl)picolinamide] | 500 to 1000 nM
N#Cc1ccc(O[C@H]2CC[C@@H](NC(=O)c3ccc(C(=O)N4CC[C@H](Oc5ccc(F)cc5)C4)cn3)CC2)cc1 [Compound 176, N-((cis)-4-(4-cyanophenoxy)cyclohexyl)-5-((S)-3-(4-fluorophenoxy)pyrrolidine-1-carbonyl)picolinamide] | 1000 to 5000 nM
CS(=O)(=O)c1ccc(OC2CCN(C(=O)c3ccc(C(=O)NC4CCN(Cc5cccc(OC(F)(F)F)c5)CC4)cn3)CC2)cc1 [Compound 239, 6-(4-(4-(methylsulfonyl)phenoxy)piperidine-1-carbonyl)-N-(1-(3-(trifluoromethoxy)benzyl)piperidin-4-yl)nicotinamide] | 1000 to 5000 nM
COc1ccc(CN2CCC(NC(=O)c3ccc(C(=O)N4CCC(Oc5ccc(C#N)cc5)CC4)nc3)CC2)cc1 [Compound 319, 6-(4-(4-cyanophenoxy)piperidine-1-carbonyl)-N-(1-(4-methoxybenzyl)piperidin-4-yl) nicotinamide] | < 500 nM
COc1cccc(CN2CCC(NC(=O)c3ccc(C(=O)N4CCC(Oc5ccc(S(C)(=O)=O)cc5)CC4)cn3)CC2)c1 [Compound 241, N-(1-(3-methoxybenzyl)piperidin-4-yl)-5-(4-(4-(methylsulfonyl)phenoxy)piperidine-1-carbonyl)picolinamide] | < 500 nM
COc1ccc(CN2CCC(NC(=O)c3ccc(C(=O)N4CCC(C(=O)c5ccc(OC)cc5)CC4)cn3)CC2)cc1 [Compound 163, 5-(4-(4-methoxybenzoyl)piperidine-1-carbonyl)-N-(1-(4-methoxybenzyl)piperidin-4-yl)picolinamide] | < 500 nM
CS(=O)(=O)c1ccc(OC2CCN(C(=O)c3ccc(C(=O)NC4CCN(Cc5cccc(OC(F)(F)F)c5)CC4)nc3)CC2)cc1 [Compound 242, 5-(4-(4-(methylsulfonyl)phenoxy)piperidine-1-carbonyl)-N-(1-(3-(trifluoromethoxy)benzyl)piperidin-4-yl)picolinamide] | < 500 nM
O=C(NC1CCN(Cc2ccc(F)cc2)CC1)c1cccc(C(=O)NC2CCN(Cc3ccc(F)cc3)CC2)n1 [Compound 87, N2,N6-bis(1-(4-fluorobenzyl)piperidin-4-yl)pyridine-2,6-dicarboxamide] | 1000 to 5000 nM
O=C(NC1CCN(Cc2ccc(Cl)cc2)CC1)c1ccc(C(=O)N2CCN(Cc3ccc(F)cc3)CC2)cn1 [Compound 52] | < 500 nM
N#Cc1ccc(CN2CCC(NC(=O)c3ccc(N4CCN(Cc5ccccc5)CC4)cn3)CC2)cc1 [Compound 110, 5-(4-benzylpiperazin-1-yl)-N-(1-(4-cyanobenzyl)piperidin-4-yl)picolinamide] | 1000 to 5000 nM
O=C(NC1CCN(Cc2ccc(N3CCCC3)cc2)CC1)c1ccc(C(=O)N2CCC(Oc3ccc(F)cc3)CC2)cn1 [Compound 196, 5-(4-(4-fluorophenoxy)piperidine-1-carbonyl)-N-(1-(4-(pyrrolidin-1-yl)benzyl)piperidin-4-yl)picolinamide] | < 500 nM

Further lines, results first:

EC50 | SMILES
< 500 nM | N#Cc1ccc(CN2CCC(NC(=O)c3ccc(C(=O)N4CCC(Cc5ccc(F)cc5)CC4)cn3)CC2)cc1 [Compound 130, N-(1-(4-cyanobenzyl)piperidin-4-yl)-5-(4-(4-fluorobenzyl)piperidine-1-carbonyl)picolinamide]
< 500 nM | N#Cc1ccc(CN2CCC(NC(=O)c3ccc(C(=O)N4CCN(c5ccc(F)cc5)CC4)cn3)CC2)cc1 [Compound 341, N-(1-(4-cyanobenzyl)piperidin-4-yl)-5-(4-(4-fluorophenyl)piperazine-1-carbonyl)picolinamide]
< 500 nM | COc1ccc(OC2CCN(C(=O)c3ccc(C(=O)NC4CCN(Cc5cc(F)cc(F)c5)CC4)nc3)CC2)cc1 [Compound 296, N-(1-(3,5-difluorobenzyl)piperidin-4-yl)-5-(4-(4-methoxyphenoxy)piperidine-1-carbonyl)picolinamide]
< 500 nM | CN1CCN(c2ccc(C(=O)C3CCN(C(=O)c4ccc(C(=O)Nc5ccc(Oc6ccc(F)cc6)nc5)cn4)CC3)cc2)CC1 [Compound 245, N-(6-(4-fluorophenoxy)pyridin-3-yl)-6-(4-(4-(4-methylpiperazin-1-yl)benzoyl)piperidine-1-carbonyl)nicotinamide]
< 500 nM | O=C(Nc1ccc(Oc2ccc(F)cc2)nc1)c1ccc(C(=O)N2CCC(Oc3ccc(C(=O)C4CC4)cc3)CC2)nc1 [Compound 457, 6-(4-(4-(cyclopropanecarbonyl)phenoxy)piperidine-1-carbonyl)-N-(6-(4-fluorophenoxy)pyridin-3-yl)nicotinamide]
< 500 nM | N#Cc1ccc(CN2CCC(NC(=O)c3ccc(C(=O)N4CCN(Cc5cc(F)cc(F)c5)CC4)cn3)CC2)cc1 [Compound 140, N-(1-(4-cyanobenzyl)piperidin-4-yl)-5-(4-(3,5-difluorobenzyl)piperazine-1-carbonyl)picolinamide]
< 500 nM | N#Cc1ccc(CN2CCC(NC(=O)c3ccc(C(=O)N4CCC(C(=O)c5ccc(F)cc5F)CC4)nc3)CC2)cc1 [Compound 346, N-(1-(4-cyanobenzyl)piperidin-4-yl)-6-(4-(2,4-difluorobenzoyl)piperidine-1-carbonyl)nicotinamide]
< 500 nM | O=C(Nc1ccc(-c2ccccc2)cc1)c1ccc(C(=O)N2CCN(Cc3ccc(F)cc3)CC2)cn1 [Compound 11]
< 500 nM | N#Cc1ccc(CN2CCC(NC(=O)c3ccc(C(=O)N4CCC(C(=O)c5ccc(F)c(F)c5)CC4)cn3)CC2)cc1 [Compound 281, N-(1-(4-cyanobenzyl)piperidin-4-yl)-5-(4-(3,4-difluorobenzoyl)piperidine-1-carbonyl)picolinamide]
< 500 nM | COc1ccc(C(=O)C2CCN(C(=O)c3ccc(C(=O)N(C)C4CCN(Cc5ccc(C#N)cc5)CC4)cn3)CC2)cc1 [Compound 482, N-(1-(4-cyanobenzyl)piperidin-4-yl)-6-(4-(4-methoxybenzoyl)piperidine-1-carbonyl)-N-methylnicotinamide]
< 500 nM | COc1ccc(OC2CCN(C(=O)c3ccc(C(=O)N[C@H]4CC[C@H](Oc5ccc(C#N)cc5)CC4)nc3)CC2)cc1 [Compound 172, N-((trans)-4-(4-cyanophenoxy)cyclohexyl)-5-(4-(4-methoxyphenoxy)piperidine-1-carbonyl)picolinamide]
< 500 nM | COc1ccc(O[C@H]2CC[C@@H](NC(=O)c3ccc(C(=O)N4CCC(C(=O)c5ccc(OC)cc5)CC4)cn3)CC2)cc1 [Compound 184, 5-(4-(4-methoxybenzoyl)piperidine-1-carbonyl)-N-((cis)-4-(4-methoxyphenoxy)cyclohexyl)picolinamide]
< 500 nM | CS(=O)(=O)c1ccc(OC2CCN(C(=O)c3ccc(C(=O)NC4CCN(Cc5ccc(C#N)cc5)CC4)nn3)CC2)cc1 [Compound 399, N-(1-(4-cyanobenzyl)piperidin-4-yl)-6-(4-(4-(methylsulfonyl)phenoxy)piperidine-1-carbonyl)pyridazine-3-carboxamide]
< 500 nM | N#Cc1ccc(CN2CCC(NC(=O)c3ccc(C(=O)N4CCC(Oc5ccc(C#N)cc5)CC4)cn3)CC2)cc1 [Compound 135, N-(1-(4-cyanobenzyl)piperidin-4-yl)-5-(4-(4-cyanophenoxy)piperidine-1-carbonyl)picolinamide]
< 500 nM | COc1ccc(C(=O)C2CCN(C(=O)c3cnc(C(=O)NC4CCN(Cc5ccc(C#N)cc5)CC4)cn3)CC2)cc1 [Compound 211, N-(1-(4-cyanobenzyl)piperidin-4-yl)-5-(4-(4-methoxybenzoyl)piperidine-1-carbonyl)pyrazine-2-carboxamide]
< 500 nM | N#Cc1ccc(CN2CCC(NC(=O)c3ccc(C(=O)N4CCC(C(=O)c5ccc(Cl)cc5)CC4)cn3)CC2)cc1 [Compound 154, 5-(4-(4-chlorobenzoyl)piperidine-1-carbonyl)-N-(1-(4-cyanobenzyl)piperidin-4-yl)picolinamide]
< 500 nM | CC(=O)Nc1ccc(OC2CCN(C(=O)c3ccc(C(=O)Nc4ccc(Oc5ccc(F)cc5)nc4)nc3)CC2)cc1 [Compound 408, 5-(4-(4-acetamidophenoxy)piperidine-1-carbonyl)-N-(6-(4-fluorophenoxy)pyridin-3-yl)picolinamide]
< 500 nM | CC(=O)c1ccc(OC2CCN(C(=O)c3ccc(C(=O)NC4CCN(Cc5ccc(F)cc5)CC4)cn3)CC2)cc1 [Compound 391, 6-(4-(4-acetylphenoxy)piperidine-1-carbonyl)-N-(1-(4-fluorobenzyl)piperidin-4-yl)nicotinamide]
< 500 nM | COc1ccc(CC2CCN(C(=O)c3ccc(C(=O)NC4CCN(Cc5ccc(C#N)cc5)CC4)nc3)CC2)cc1 [Compound 131, N-(1-(4-cyanobenzyl)piperidin-4-yl)-5-(4-(4-methoxybenzyl)piperidine-1-carbonyl)picolinamide]
